pKi: −log10 of the molar value. Where a name gives a salt, the structure may show the parent alone.

The assay deals with T1, sigma-1 receptor (Cavia porcellus, UniProt Q60492).
T1 construct: Guinea pig brains were homogenized in 10 vols; (w/v) of Tris-HCl 50 mM 0.32 M sucrose; from tissue; host or cells: guinea pig brain membranes
T1 sequence (Q60492 whole entry): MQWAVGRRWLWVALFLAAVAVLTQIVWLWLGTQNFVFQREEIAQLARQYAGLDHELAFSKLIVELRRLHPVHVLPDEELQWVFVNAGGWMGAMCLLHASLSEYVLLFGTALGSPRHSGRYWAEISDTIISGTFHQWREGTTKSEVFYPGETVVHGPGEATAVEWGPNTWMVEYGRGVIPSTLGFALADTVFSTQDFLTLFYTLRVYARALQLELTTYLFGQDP
Nature of the assay: Sigma-1 receptor radioligand binding assay with [3H]-(+)-pentazocine in guinea pig brain membranes. The note with it: radioligand [3H]-(+)-pentazocine at 5.0 nM, 150 min at 37° C., nonspecific binding with 1 μM haloperidol. How it is done:
Brain membrane preparation and binding assays for the al-receptor were performed as described (DeHaven-Hudkins, D. L., L. C. Fleissner, and F. Y. Ford-Rice, 1992, Characterization of the binding of [^3H](+)pentazocine to a recognition sites in guinea pig brain, Eur. J. Pharmacol. 227, 371-378) with some modifications. Guinea pig brains were homogenized in 10 vols. (w/v) of Tris-HCl 50 mM 0.32 M sucrose, pH 7.4, with a Kinematica Polytron PT 3000 at 15000 r.p.m. for 30 s. The homogenate was centrifuged at 1000 g for 10 min at 4° C. and the supernatants collected and centrifuged again at 48000 g for 15 min at 4° C. The pellet was resuspended in 10 volumes of Tris-HCl buffer (50 mM, pH 7.4), incubated at 37° C. for 30 min, and centrifuged at 48000 g for 20 min at 4° C. Following this, the pellet was resuspended in fresh Tris-HCl buffer (50 mM, pH 7.4) and stored on ice until use.
The radioligand used was [^3H]-(+)-pentazocine at 5.0 nM and the final volume was 200 μl. The incubation was initiated with the addition of 100 μl of membrane at a final tissue concentration of approximately 5 mg tissue net weight/mL and the incubation time was 150 m. at 37° C. After incubation, the membranes were collected onto pretreated glass fiber filterplate (MultiScreen-FC, Millipore), with polyethylenimine 0.1%. The filters were washed two times with 200 μl of washing buffer (50 mM Tris Cl, pH=7.4) and then 25 μl of Ecoscint H liquid scintillation cocktail were added. Microplates were allowed to set for several hours and then quantified by liquid scintillation spectrophotometry (1450 Microbeta, Wallac). Nonspecific binding was determined with 1 μM haloperidol.
As to `CCC(=O)N1Cc2c(-c3ccccc3)nnn2[C@@H]2CN(Cc3ccccc3)C[C@H]21` (racemic) [Example 17, (rac) 1-((5a,8a-trans)-7-benzyl-3-phenyl-6,7,8,8a-tetrahydro-4H-pyrrolo[3,4-e][1,2,3]triazolo[1,5-a]pyrazin-5(5aH)-yl)propan-1-one hydrochloride], the pKi was 6.30 to 7.00.

For `CN1Cc2c(-c3ccccc3)nnn2[C@@H]2CN(Cc3ccccc3)C[C@H]21` (racemic) [Example 16, (rac) (5a,8a-trans)-7-benzyl-5-methyl-3-phenyl-5,5a,6,7,8,8a-hexahydro-4H-pyrrolo[3,4-e][1,2,3]triazolo[1,5-a]pyrazine hydrochloride], the pKi is > 7.00.

As to `CCCN1C(=O)c2c(-c3ccccc3)nnn2[C@@H]2CN(Cc3ccccc3)C[C@@H]21` (racemic) [Example 5, (rac)-(5a,8a-cis)-7-benzyl-3-phenyl-5-propyl-5,5a,6,7,8,8a-hexahydro-4H-pyrrolo[3,4-e][1,2,3]triazolo[1,5-a]pyrazin-4-one], the pKi was < 6.30.

In the case of `CCCCCN1C[C@@H]2NCc3c(-c4ccccc4)nnn3[C@@H]2C1` (racemic) [Example 14, (rac) (5a,8a-cis)-7-pentyl-3-phenyl-5,5a,6,7,8,8a-hexahydro-4H-pyrrolo[3,4-e][1,2,3]triazolo[1,5-a]pyrazine], the negative-log Ki (pKi) was > 7.00.

`CC(C)(C)OC(=O)N1Cc2c(-c3ccccc3)nnn2[C@@H]2CNC[C@H]21` (racemic) [Example 6, (rac)-(5a,8a-trans)-tert-butyl-3-phenyl-6,7,8,8a-tetrahydro-4H-pyrrolo[3,4-e][1,2,3]triazolo[1,5-a]pyrazine-5(5aH)-carboxylate]: the pKi was < 6.30.

As for `Fc1ccccc1-c1nnn2c1CN[C@@H]1CN(Cc3ccccc3)C[C@H]12` (racemic) [Example 28, (rac) (5a,8a-trans)-7-benzyl-3-(2-fluorophenyl)-5,5a,6,7,8,8a-hexahydro-4H-pyrrolo[3,4-e][1,2,3]triazolo[1,5-a]pyrazine hydrochloride], the pKi is > 7.00.

In turn, `c1ccc(-c2nnn3c2CN[C@@H]2CN(CC4CC4)C[C@H]23)cc1` (racemic) [Example 18, (rac) (5a,8a-trans)-7-(cyclopropyl-methyl)-3-phenyl-5,5a,6,7,8,8a-hexahydro-4H-pyrrolo[3,4-e][1,2,3]triazolo[1,5-a]pyrazine hydrochloride] showed a negative logarithm of the Ki (pKi) of 6.30 to 7.00.

As to `Fc1ccc(CN2C[C@@H]3NCc4c(-c5ccccc5)nnn4[C@H]3C2)cc1` [Example 23, (5aS,8aS)-7-(4-fluorobenzyl)-3-phenyl-5,5a,6,7,8,8a-hexahydro-4H-pyrrolo[3,4-e][1,2,3]triazolo[1,5-a]pyrazine hydrochloride], the pKi was < 6.30.

`CCCCCN1C[C@@H]2[C@@H](C1)n1nnc(-c3ccccc3)c1CN2CCC` (racemic) [Example 11, (rac) (5a,8a-trans)-7-pentyl-3-phenyl-5-propyl-5,5a,6,7,8,8a-hexahydro-4H-pyrrolo[3,4-e][1,2,3]triazolo[1,5-a]pyrazine hydrochloride]: the pKi was > 7.00.

`c1ccc(CN2C[C@@H]3[C@@H](C2)NCc2c(-c4ccccc4)nnn23)cc1` [Example 22, (5aR,8aR)-7-benzyl-3-phenyl-5,5a,6,7,8,8a-hexahydro-4H-pyrrolo[3,4-e][1,2,3]triazolo[1,5-a]pyrazine hydrochloride]: the pKi is > 7.00.

In the case of `Fc1ccc(CN2C[C@@H]3[C@@H](C2)NCc2c(-c4ccccc4)nnn23)cc1` (racemic) [Example 8, (rac) (5a,8a-trans)-7-(4-fluorobenzyl)-3-phenyl-5,5a,6,7,8,8a-hexahydro-4H-pyrrolo[3,4-e][1,2,3]triazolo[1,5-a]pyrazine hydrochloride], the pKi was > 7.00.

(Values after patent US10035805B2, “Tricyclic triazolic compounds” (LABORATORIOS DEL DR. ESTEVE S.A., priority 2014, dated 2018).)
